Measured values: US20080171710A1, “The Redox/Fyn/c-Cbl Pathway” (priority 2007, published 2008)

Tests used:
c-Cbl [1] = type: cell-based, rat
Method: (§1) For the co-immunoprecipitation assay, anti-c-Cbl monoclonal antibody (BD PharMingen) or anti-PDGFRα polyclonal antibody (Santa Cruz Biotechnology) was added to the pre-cleared cell lysates (250 μg of total protein), and the mixtures were gently rocked for 2 h at 4° C. A total of 30 μl of protein A/G agarose was then added to the mixture followed by rotating at 4° C. overnight. The protein A/G agarose was then spun down and washed thoroughly three times. The precipitates were resolved on an 8% SDS-PAGE gel and then were subjected to Western blot analysis using an anti-p-Tyr (for c-Cbl phosphorylation assay) or ubiquitin (for PDGFR ubiquitylation assay) antibody (Santa Cruz Biotechnology).

Erk1/2 = type: cell-based, rat
Method: (§2) Cells were deprived of PDGF-AA for 5 h before re-exposure to PDGF-AA (10 ng/ml) for 1 h for Western blot or 6 h for luciferase assays of pathway activation. Transient transfection was performed using Fugene6 (Roche, Basel, Switzerland ) transfection solution according to the manufacturer's protocol. For the luciferase assay, cells seeded in 12-well plates were transfected with a reporter plasmid SRE-Luc(firefly) or NF-κB-Luc(firefly) (BD-Clontech, Palo Alto, Calif., United States) and an internal control plasmid pRLSV40-LUC. Analyses of luciferase activity were performed according to the protocol of the Dual Luciferase Assay System (Promega, Madison, Wis., United States), which uses an internal control of Renilla luciferase for quantification, and relative light units were measured using a luminometer.
(§3) Anti-phosphorylated Erk monoclonal, anti-Erk monoclonal, anti-TrkC polyclonal anti-Fyn polyclonal, anti-EGFR polyclonal, anti-c-Met polyclonal, anti-phospho-tyrosine monoclonal, and anti-PDGFRα polyclonal antibodies were obtained from Santa Cruz Biotechnology (Santa Cruz, Calif., United States). Anti-c-Cbl monoclonal antibody was obtained from BD PharMingen (San Diego, Calif., United States). Anti-phosphorylated Akt monoclonal and anti-Akt polyclonal antibodies were obtained from Cell Signaling Technology (Beverly, Mass., United States). Anti-phosphorylated PDGPRα polyclonal antibody was obtained from Biosource (Carlsbad, Calif., United States). The cell culture samples were collected and lysed in RAPI buffer, whereas dissected tissue samples were sonicated in RAPI buffer. Samples were resolved on SDS-PAGE gels and transferred to PVDF membranes (PerkinElmer Life Science. Wellesley, Mass., United States), After being blocked in 5% skim milk in PBS containing 0.1% Tween 20, membranes were incubated with a primary antibody, followed by incubation with an HRP-conjugated secondary antibody (Santa Cruz Biotechnology). Membranes were visualized using Western Blotting Luminol Reagent (Santa Cruz Biotechnology). All analyses of signaling pathway components were conducted in the presence of ligand for the receptor pathway under analysis (either PDGF-AA for PDGFRα, NT-3 or TrkC, HGF for c-Met, or EGF for EGFR).

Akt = type: cell-based, rat
Method: as §2, §3

Fyn [2] = type: cell-based, rat; conditions: EtOH exposure 30 min
PDGFRα [3] = type: cell-based, rat; conditions: for effect on MeHg-induced reductions in levels of PDGFRα: together with MeHg; for effect on Pb- and paraquat-induced reductions in levels of PDGFRα: together with Pb (1 μM) or paraquat (5 μM)
TrkC = type: cell-based, rat
Excerpt: as §3

EGFR = type: cell-based, rat
Excerpt: as §3

c-Met = type: cell-based, rat
Excerpt: as §3

O-2A/OPCs [4] = experiment: MTT+ cells in EtOH-exposed O-2A/OPCs; type: cell-based, rat; conditions: cells infected with empty virus; 0.5% EtOH, 72 hrs
Method: Twenty-four hr after transfection, medium was changed into DMEM/F12(SATO-) supplemented with 10 ng/ml PDGF-AA. Virus supernatant was collected forty-eight hr post-transfection, filtered through 0.45 um filter to remove non-adherent cells and cellular debris, frozen in small aliquots on dry ice, and stored at −80° C. Twenty-four hr prior to infection with either DN-c-Cbl virus or backbone virus, O-2A cells were seeded. The following day, the culture media was aspirated and replaced with virus supernatant diluted 1:1 in the O-2A growth media. Media was then changed into O-2. A growth media after eight hr or overnight. Twenty-four hr after infection, the cells were collected by trypsinization and reseeded in the selective media (growth media+200 ng/ml puromycin). By the next day, all non-infected cells were floating and presumably dead or dying. The infected cells were allowed to proliferate for two days, and then collected and re-seeded for these experiments.

Fyn [5] = molecular target: T1, Fyn (Rattus norvegicus, UniProt Q62844); type: cell-based
T1 construct: 250 μg of total cell lysates were immunoprecipitated with anti-Fyn antibody; endogenous in cells; host or cells: primary rat O-2A/OPCs
Method: Fyn kinase activity was quantified using the Universal Tyrosine Kinase Assay Kit (Takara, Madison, Wis., United States). O-2A/OPCs exposed to different treatments were solubilized with an equal volume of the extraction buffer provided with the kit for 15 min, and the resulting lysates were centrifuged at 13,000×g for 15 min at 4° C.; 250 μg of total cell lysates were immunoprecipitated with anti-Fyn antibody (Santa Cruz Biotechnology). Following immunoprecipitation, Fyn immune complexes were washed four times with extraction buffer, and then Fyn kinase activities of each sample were assayed using the kit according to the manufacturer's instructions.

O-2A/OPCs [6] = experiment: Clonal analysis of division and differentiation; type: cell-based, rat; conditions: co-exposure with MeHg; 1 mM NAC or PP1
Method: O-2A/OPCs purified from P7 rat optic nerve were plated in. poly-L-lysine-coated 25-cm^2 flasks at clonal density with DMBM medium in the presence of 10-ng/ml PDGF as previously described. After 24-h recovery, cells were treated with different toxicants, each for 3 d, until visual inspection and immunostaining was performed. NAC was added 1 h before exposure to other toxicants for NAC pretreatment, and NAC co-exists throughout the culture period. The numbers of O-2A/OPCs and oligodendrocytes in each clone were determined by counting under fluorescent microscope. […] Experiments were performed in triplicate in at least two independent experiments.

O-2A/OPCs [7] = experiment: In vitro BrdU incorporation assay; type: cell-based, rat
Method: Cell proliferation was assessed by bromodeoxyuridine (BrdU) incorporation and by using the mouse anti-BrdU mAb IgGl (1:100; Sigma) to label dividing cells. Stained cells on cover slips were rinsed two times in 1×PBS, counterstained with 4′6-diamidino-2-phenylindole (DAPI; Molecular Probes, Eugene, Oreg., United States) and mounted on glass slides with Fluoromount (Molecular Probes). Staining against surface proteins was performed on cultures of living cells or on cells fixed with 2% paraformaldehyde. Staining with intracellular antibodies was performed by permeabilizing cells with ice-cold methanol for 4 min or by using 0.5% Triton for 15 mm on 2% parafomaldhyde-fixed cells. Antibody binding was detected with appropriate fluorescent dye-conjugated secondary antibodies at 10 μg/ml (Southern Biotech, Birmingham, Ala., United States) or Alexa Fluor-coupled antibodies at a concentration of 1 μg/ml (Molecular Probes), applied for 20 min. Anti-BrdU monoclonal antibody was obtained from Sigma.

PDGFRα [8] = experiment: PDGFR ubiquitylation (immunoprecipitation assay); type: cell-based, rat; conditions: co-exposure with MeHg
Method: as §1

cancer cells = experiment: Cancer cell viability (MTT assays), FIG. 22; type: cell-based; conditions: TMX 1-50 μM, 48 hours
MDA-MB-231 cell = MDA-MB-231 cell division by BrdU incorporation; type: cell-based; conditions: NAC 1 mM or PP1 200 nM with 20 μM tamoxifen, 48 hours
Method: It has been reported that c-Cbl induced down-regulation of EGFR is disabled in cancer cells (Hirsch DS, Shen. Y, Wu WJ, (2006) Cancer Res. Apr 1;66(7):3523-30). Thus, growth and motility inhibition of breast cancer cells by EGFR degradation is correlated with inaetivation of Cdc42. […] Cells were cultured in phenol red-free growth media and exposed to TMX (0, 1 μM, 10 μM, 20 μM and 50 μM) for 48 hours, with or without 1 mM NAC. In FIG. 22C. MDA-MB-231 cell division was analyzed by BrdU incorporation analysis. […] Percentage of Brdu+ cells from DAPI+ cells was determined in each sample.

PDGFRα [9] = experiment: PDGFRα phosphorylation (Western blot, anti-PDGFRα(pY742)); type: cell-based, rat; conditions: co-exposure with MeHg
Excerpt: The cells were then collected and lysed for Western blotting. […] Cells were lysed for Western blot analysis using anti-PDGFRα(pY742) antibody. The membranes were de-probed and then re-probed with antibody against total PDGFRα and anti-β-tubulin antibody. […]
as §3

Rho kinase = Rho kinase (Rattus norvegicus, UniProt Q63644); conditions: concentration of Y27632 used in O-2A/OPCs
Method: Rho kinase activity was quantified using the CycLex Rho-Kinase Assay kit (MBL international, Woburn, Mass., United States) as described. Cells were lysed and about 500 μg of total cell Jysates were immunoprecipitated with anti-ROCK1 antibody (Sigma), and the precipitates were re-suspended with kinase reaction buffer provided in the kit. Rho kinase activities of each sample were assayed using the kit according to the manufacturer's instructions.

c-Cbl [10] = experiment: c-Cbl protein level after RNAi (Western blot); type: cell-based, rat; conditions: expression of RNAi construct
Excerpt: (§4) Anti-phosphorylated Erk monoclonal, anti-Erk monoclonal, anti-TrkC polyclonal anti-Fyn polyclonal, anti-EGFR polyclonal, anti-c-Met polyclonal, anti-phospho-tyrosine monoclonal, and anti-PDGFRα polyclonal antibodies were obtained from Santa Cruz Biotechnology (Santa Cruz, Calif., United States). Anti-c-Cbl monoclonal antibody was obtained from BD PharMingen (San Diego, Calif., United States). Anti-phosphorylated Akt monoclonal and anti-Akt polyclonal antibodies were obtained from Cell Signaling Technology (Beverly, Mass., United States). Anti-phosphorylated PDGPRα polyclonal antibody was obtained from Biosource (Carlsbad, Calif., United States). The cell culture samples were collected and lysed in RAPI buffer, whereas dissected tissue samples were sonicated in RAPI buffer. […]
(§5) siRNA target sites were selected by scanning the cDNA sequence for AA dinucleotides via siRNA target finder (Ambion, Austin, Tex., United States). Those 19-nucleotide segments that start with G immediately downstream of AA were recorded and then analyzed by BLAST search to eliminate any sequences with significant similarity to other genes. […]

Fyn [11] = experiment: Fyn protein level after RNAi (Western blot); type: cell-based, rat; conditions: expression of RNAi construct
Excerpt: as §4, §5

[12] = NAC 1 mM, PP1 100 nM or ICI 182,780 200 nM with TMX

T1 sequence (Q62844 whole entry): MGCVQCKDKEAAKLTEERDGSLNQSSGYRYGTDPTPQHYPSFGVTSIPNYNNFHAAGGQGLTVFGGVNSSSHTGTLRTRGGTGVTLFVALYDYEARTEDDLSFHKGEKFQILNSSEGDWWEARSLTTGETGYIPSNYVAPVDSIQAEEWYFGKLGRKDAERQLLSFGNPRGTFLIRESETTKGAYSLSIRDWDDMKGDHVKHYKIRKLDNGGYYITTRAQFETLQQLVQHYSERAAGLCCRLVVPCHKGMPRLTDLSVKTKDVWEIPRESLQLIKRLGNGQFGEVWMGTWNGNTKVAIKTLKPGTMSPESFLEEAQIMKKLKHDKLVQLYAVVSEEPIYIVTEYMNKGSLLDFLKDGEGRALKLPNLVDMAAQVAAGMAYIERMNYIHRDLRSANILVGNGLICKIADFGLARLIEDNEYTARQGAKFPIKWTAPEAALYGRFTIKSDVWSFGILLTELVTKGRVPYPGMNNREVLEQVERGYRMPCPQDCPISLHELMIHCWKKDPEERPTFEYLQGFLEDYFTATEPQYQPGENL
Sequence of Rho kinase (Q63644 whole entry): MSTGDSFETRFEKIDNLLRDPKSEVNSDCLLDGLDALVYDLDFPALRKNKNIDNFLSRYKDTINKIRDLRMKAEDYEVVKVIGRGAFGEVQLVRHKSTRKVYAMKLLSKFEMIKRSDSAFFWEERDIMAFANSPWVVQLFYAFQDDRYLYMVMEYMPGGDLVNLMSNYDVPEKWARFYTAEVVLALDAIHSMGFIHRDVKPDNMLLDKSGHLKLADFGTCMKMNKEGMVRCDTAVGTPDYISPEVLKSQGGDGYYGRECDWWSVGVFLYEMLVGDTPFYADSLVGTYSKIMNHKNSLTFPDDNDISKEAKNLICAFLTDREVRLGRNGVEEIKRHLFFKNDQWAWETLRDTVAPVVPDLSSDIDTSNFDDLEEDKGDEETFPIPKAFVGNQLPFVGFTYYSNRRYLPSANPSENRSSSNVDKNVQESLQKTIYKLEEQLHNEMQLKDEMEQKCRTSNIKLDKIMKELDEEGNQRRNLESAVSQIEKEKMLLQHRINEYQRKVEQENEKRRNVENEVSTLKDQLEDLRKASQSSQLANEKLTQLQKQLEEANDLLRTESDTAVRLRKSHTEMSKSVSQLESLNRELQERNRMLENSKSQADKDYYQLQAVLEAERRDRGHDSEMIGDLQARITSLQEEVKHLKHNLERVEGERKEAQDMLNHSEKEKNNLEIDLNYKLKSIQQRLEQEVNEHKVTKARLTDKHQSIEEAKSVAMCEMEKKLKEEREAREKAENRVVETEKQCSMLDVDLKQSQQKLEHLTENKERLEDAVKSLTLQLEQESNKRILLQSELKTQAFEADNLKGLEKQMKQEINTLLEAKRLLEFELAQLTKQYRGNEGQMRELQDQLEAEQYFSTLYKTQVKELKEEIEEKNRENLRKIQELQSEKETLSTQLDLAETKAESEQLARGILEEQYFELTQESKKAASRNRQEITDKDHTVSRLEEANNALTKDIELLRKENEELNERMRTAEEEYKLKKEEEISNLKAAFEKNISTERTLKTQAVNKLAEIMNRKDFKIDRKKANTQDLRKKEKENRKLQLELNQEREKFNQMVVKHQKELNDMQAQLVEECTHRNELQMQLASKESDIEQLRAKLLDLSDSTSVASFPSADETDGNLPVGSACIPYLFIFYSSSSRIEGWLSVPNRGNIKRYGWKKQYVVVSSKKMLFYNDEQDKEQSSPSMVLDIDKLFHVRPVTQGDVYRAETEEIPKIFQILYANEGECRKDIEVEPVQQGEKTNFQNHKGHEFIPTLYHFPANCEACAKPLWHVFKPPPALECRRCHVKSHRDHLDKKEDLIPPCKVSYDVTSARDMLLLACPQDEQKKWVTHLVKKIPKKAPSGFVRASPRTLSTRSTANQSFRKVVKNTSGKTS

## CCO [EtOH, ethanol]
c-Cbl [1]
  c-Cbl phosphorylation: caused c-Cbl phosphorylation
Erk1/2
  PDGF-induced phosphorylation of Erk1/2: suppression
Akt
  PDGF-induced phosphorylation of Akt: suppression
Fyn [2]
  Fyn phosphorylation: caused Fyn phosphorylation
PDGFRα [3]
  levels of PDGFRα: decreased levels
TrkC
  levels of TrkC: unaltered
EGFR
  levels of EGFR: decreased levels
c-Met
  levels of c-Met: decreased levels
O-2A/OPCs [4]
  decrease in the proportion of cells that were MTT+: ~25%

## Cc1ccc(-c2nn(C(C)(C)C)c3ncnc(N)c23)cc1 [PP1]
c-Cbl [1]; [12]
  effect on TMX-induced activation of c-Cbl: blocked
c-Cbl [1]; added 1 h before MeHg
  effect on MeHg-induced c-Cbl phosphorylation: blocked
c-Cbl [1]; co-exposure with Aβ
  effect on Aβ-induced increase in phosphorylated c-Cbl: blocked
Fyn [5]; [12]
  effect on TMX-induced activation of Fyn: blocked
Fyn [5]; added 1 h before MeHg
  effect on MeHg-induced Fyn activation: blocked
Fyn [5]; added 1 h before Pb or paraquat
  effect on Pb- and paraquat-induced Fyn activation: prevented
Erk1/2; co-exposure with Aβ(1-42)
  effect on Aβ(1-42) suppression of PDGF-mediated Erk1/2 phosphorylation: blocked
Erk1/2; co-treatment with MeHg
  effect on MeHg-associated suppression of Erk1/2 phosphorylation: blocked
O-2A/OPCs [6]
  effect on MeHg-induced suppression of cell division at the clonal level: blocked
O-2A/OPCs [7]; with TMX, 2 days
  effect on TMX effect on cell proliferation: blocked
PDGFRα [8]
  levels of ubiquitylated PDGFRα in MeHg-treated cells: marked reduction
PDGFRα [3]; [12]
  effect on TMX-induced reductions in levels of PDGFRα: blocked
PDGFRα [3]; co-exposure with Aβ
  effect on Aβ-induced reduction in PDGFRα levels: blocked
PDGFRα [3]
  effect on MeHg-induced reductions in levels of PDGFRα: blocked
  effect on Pb- and paraquat-induced reductions in levels of PDGFRα: prevented
Cancer cells
  effect on TMX effects on cancer cells: not blocked
MDA-MB-231 cell
  rescue from tamoxifen effect on cell division: did not result in any rescue effect
PDGFRα [9]
  effect on MeHg-induced suppression of PDGFRα phosphorylation: protected

## C[C@@H](N)[C@H]1CC[C@H](C(=O)Nc2ccncc2)CC1 [Y27632]
O-2A/OPCs [7]; together with MeHg
  effect on MeHg-associated suppression of BrdU incorporation / cell division: did not alter
Rho kinase
  Rho kinase activity: successfully inhibited

B1: Fyn-RNAi: Fyn-specific siRNA construct, SEQ ID NO: 1 and 2 (nucleic acid)
chain 1: GTTTGCTCGACTTCTTAAATTCAAGAGATTTAAGAAGTCGAGCAAACTTTTTT
chain 2: AATTAAAAAAGTTTGCTCGACTTCTTAAATCTCTTGAATTTAAGAAGTCGAGCAAACGGCC
modifications: expressed or natural sequence
c-Cbl [10]
  levels of c-Cbl protein: had no effects
Fyn [11]
  levels of Fyn protein: caused a reduction
PDGFRα [3]
  effect on MeHg-induced reductions in levels of PDGFRα: protected
  effect on Pb- and paraquat-induced reductions in levels of PDGFRα: prevented
